Legend:
[1] = target: recombinant human CYP17 enzyme (Homo sapiens (Human), UniProt P05093); assay: Cytochrome P450, 17-20 lyase (CYP17-lyase) assay, tritiated acetic acid release from 17-α-hydroxy pregnenolone [21-3H]; type: biochemical; conditions: human CYP17, substrate 0.25 μM; read-out: Lyase IC 50 nM Human/Rat (Human)
Procedure, shortened: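 Membranes of cells expressing human CYP17 incubated 90 min at room temperature with [21-3H]17α-hydroxypregnenolone and 4.2 mM NADPH in 50 mM phosphate pH 7.5. Released tritiated acetic acid separated from steroids by charcoal and counted by scintillation; IC50 from sigmoidal fit of % inhibition.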

rat CYP17 lyase = rat CYP17 lyase (Rattus norvegicus (Rat), UniProt P11715); assay: rat CYP 17 Lyase model, rat testes microsomes as the source; type: biochemical; conditions: for inhibition at 0.1 µM: 100 nM compound, read-out: rCYP17 Lyase % Inh @ 100 nM; for IC50: rat testes microsomes, substrate 0.5 μM, read-out: Lyase IC 50 nM Human/Rat (Rat)
Sequence of rat CYP17 lyase (P11715 whole entry): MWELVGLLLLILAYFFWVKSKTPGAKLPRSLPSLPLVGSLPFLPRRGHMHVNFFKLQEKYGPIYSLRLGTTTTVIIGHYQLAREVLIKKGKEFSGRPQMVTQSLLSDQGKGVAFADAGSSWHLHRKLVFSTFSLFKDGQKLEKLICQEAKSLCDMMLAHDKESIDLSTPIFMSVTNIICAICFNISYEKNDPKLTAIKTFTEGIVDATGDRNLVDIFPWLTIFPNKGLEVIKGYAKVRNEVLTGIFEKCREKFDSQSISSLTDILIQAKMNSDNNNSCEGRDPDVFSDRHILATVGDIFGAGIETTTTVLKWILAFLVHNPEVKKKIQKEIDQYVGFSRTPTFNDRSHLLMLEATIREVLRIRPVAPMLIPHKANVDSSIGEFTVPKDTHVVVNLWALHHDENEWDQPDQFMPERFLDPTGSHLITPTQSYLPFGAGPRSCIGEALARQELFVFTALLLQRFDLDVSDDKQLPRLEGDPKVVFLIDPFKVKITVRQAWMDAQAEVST
Protocol: For routine screening, the assay was set up with 16 μg of enzyme in 50 μL reaction volume. 17α-hydroxy pregnenolone [21-3H] was added to a final concentration of 0.25 μM. NADPH is used at a final concentration of 4.2 mM. Total reaction volume was made up to 50 μL with 50 mM Phosphate buffer pH 7.5. The reaction mixture was incubated at room temperature for 90 minutes with gentle shaking. The reaction was stopped by the addition of 100 μL of buffer. 500 μL of 5% freshly prepared activated charcoal was added to the solution and mixed well by vortexing. The samples were centrifuged at 17568×g for 5 minutes. (14000 rpm). The supernatant was carefully transferred to fresh tube and 1.3 mL of scintillation fluid was added, mixed by vortexing.
The radioactivity was measured in a 1450 MicroBeta TriLux™ scintillation counter from Wallac-Perkin Elmer®, USA. The measurements were carried out in 2.0 mL Eppendorforf™ tubes. Each tube was counted for 1 minute. The amount of tritiated acetic acid released is proportional to the lyase activity. Percent lyase activity in presence of inhibitor was calculated using the formula given below.
[formula] • Sample: Enzyme reaction in presence of inhibitor. • Positive control: Enzyme reaction without inhibitor but containing DMSO at 1% final concentration. • Blank-Contains all reagents except enzyme. % Inhibition=100%−% Lyase activity
For IC50 determination, the % inhibition was plotted as a function of inhibitor concentration. The data was fitted to sigmoidal equation using Graphpad Prism® software IV to generate IC50 values.
For the rat CYP 17 Lyase Model:
The same procedure described above was used but using rat testes microsomes as the source and with a substrate concentration of 0.5 μM.

Sequence of recombinant human CYP17 enzyme (P05093 whole entry): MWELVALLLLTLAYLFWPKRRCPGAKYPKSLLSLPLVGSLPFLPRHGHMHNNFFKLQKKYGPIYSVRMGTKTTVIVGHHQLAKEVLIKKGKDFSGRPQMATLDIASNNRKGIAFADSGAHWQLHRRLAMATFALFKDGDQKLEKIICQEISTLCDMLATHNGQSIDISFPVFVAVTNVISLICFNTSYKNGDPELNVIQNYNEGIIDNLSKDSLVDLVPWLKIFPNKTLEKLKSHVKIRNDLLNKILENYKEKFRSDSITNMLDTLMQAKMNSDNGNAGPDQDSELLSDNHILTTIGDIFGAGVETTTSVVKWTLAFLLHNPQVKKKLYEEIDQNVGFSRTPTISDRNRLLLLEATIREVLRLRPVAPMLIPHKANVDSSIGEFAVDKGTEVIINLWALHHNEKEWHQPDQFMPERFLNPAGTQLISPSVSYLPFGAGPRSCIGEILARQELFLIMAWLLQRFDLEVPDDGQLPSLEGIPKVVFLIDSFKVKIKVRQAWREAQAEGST

IC50 [1] | inhibition at 0.1 µM (rat CYP17 lyase) | IC50 (rat CYP17 lyase) | Structure (SMILES)
24 nM | 101% |  | Cc1ccncc1N1CCN(c2ccc3sccc3c2)C1=O [Example 27A, 1-Benzo[b]thiophen-5-yl-3-(4-methyl-pyridin-3-yl)-imidazolidin-2-one]
 | 91% | 11 nM | Cc1ccncc1N1CCN(c2ccc(-c3ccccc3)cc2)C1=O [Example 19A, 1-Biphenyl-4-O-3-(4-methyl-pyridin-3-yl)-imidazolidin-2-one]
 | 18% |  | O=C1N(c2cccnc2)CCN1c1ccc2scnc2c1 [Example 9A, 1-Benzothiazol-5-yl-3-pyridin-3-yl-imidazolidin-2-one]
77 nM | 59% |  | O=C1N(c2cccnc2)CCN1c1ccc2ncsc2c1 [Example 4A, 1-Benzothiazol-6-yl-3-pyridin-3-yl-imidazolidin-2-one]
6.5 nM |  | 2 nM | Cc1ccncc1N1CCN(c2cccc(C(F)(F)F)c2)C1=O [Example 70A, 1-(4-Methyl-pyridin-3-yl)-3-(3-trifluoromethyl-phenyl)-imidazolidin-2-One]
 | 76% |  | Cc1ccncc1N1CCN(c2ccc(F)nc2)C1=O [Example 30A, 1-(6-Fluoro-pyridin-3-yl)-3-(4-methyl-pyridin-3-yl)-imidazolidin-2-one]
 | 11% |  | O=C1N(c2cccnc2)CCCN1c1ccc2ccccc2c1 [Example 10A, 1-Naphthalen-2-yl-3-pyridin-3-yl-tetrahydro-pyrimidin-2-one]
3 nM | 98% |  | Cc1ccncc1N1CCN(c2ccc3occ(C)c3c2)C1=O [Example 29A, 1-(3-Methyl-benzofuran-5-yl)-3-(4-methyl-pyridin-3-yl)-imidazolidin-2-one]
 | 31% |  | COc1ccc2cc(N3CCN(c4cccnc4)C3=O)ccc2c1 [Example 3A, 1-(6-Methoxy-naphthalen-2-yl)-3-pyridin-3-O-imidazolidin-2-one]
 | 87% | 16 nM | O=C1N(c2cccnc2)CCN1c1ccc2sccc2c1 [Example 7A, 1-Benzo[b]thiophen-5-yl-3-pyridin-3-yl-imidazolidin-2-one]
 | 57% |  | O=C1N(c2cncc(Cl)c2)CCN1c1ccc2ccccc2c1 [Example 80A]
 | 51% |  | CCN1C(=O)CCc2cc(N3CCN(c4cccnc4)C3=O)ccc21 [Example 5A, 1-Ethyl-6-(2-oxo-3-pyridin-3-yl-imidazolidin-1-yl)-3,4-dihydro-1H-quinolin-2-one]
 | 59% | 97 nM | Cc1cc(Cl)nc2ccc(N3CCN(c4cccnc4)C3=O)cc12 [Example 11A, 1-(2-Chloro-4-methyl-quinolin-6-yl)-3-pyridin-3-yl-imidazolidin-2-one]
 | 73% |  | COc1cncc(N2CCN(c3cnccc3C)C2=O)c1 [Example 32A, 1-(5-Methoxy-pyridin-3-yl)-3-(4-methyl-pyridin-3-yl)-imidazolidin-2-one]
9.4 nM |  | 10 nM | COc1cc(N2CCN(c3cnccc3C)C2=O)ccn1 [Example 72A, 1-(2-Methoxy-pyridin-4-yl)-3-(4-methyl-pyridin-3-yl)-imidazolidin-2-one]
108 nM | 74% |  | Cc1ccncc1N1CCN(c2ccsc2)C1=O [Example 31A, 1-(4-Methyl-pyridin-3-yl)-3-thiophen-3-yl-imidazolidin-2-one]
76 nM | 88% | 12 nM | Cc1ccncc1N1CCN(c2ccc(F)cc2)C1=O [Example 18A, 1-(4-Fluoro-phenyl)-3-(4-methyl-pyridin-3-yl)-imidazolidin-2-one]

IC50 [1] | inhibition at 0.1 µM (rat CYP17 lyase) | IC50 (rat CYP17 lyase) | Structure (SMILES)
 | 82% |  | O=C1N(c2cncc(F)c2)CCN1c1ccc2ccccc2c1 [Example 81A, 1-(5-Fluoro-pyridin-3-yl)-3-naphthalen-2-yl-imidazolidin-2-one]
4 nM | 61% | 52 nM | Cc1ccncc1N1CCN(c2ccc3[nH]ncc3c2)C1=O [Example 28A, 1-(1H-Indazol-5-yl)-3-(4-methyl-pyridin-3-yl)-imidazolidin-2-one]
 | 48% |  | O=C1N(c2cccnc2)CCN1c1ccc2ncccc2c1 [Example 8A, 1-Pyridin-3-yl-3-quinolin-6-yl-imidazolidin-2-one]
 | 85% | 24 nM | Cc1ccncc1N1CCN(c2ccc3[nH]c(=O)cc(C)c3c2)C1=O [Example 22A, 4-Methyl-6-[3-(4-methyl-pyridin-3-yl)-2-oxo-imidazolodin-1yl]1H-quinolin-2-one]
34 nM | 84% | 35 nM | O=C1N(c2cccnc2)CCN1c1ccc2ccccc2c1 [Example 1A, 1-Naphthalen-2-yl-3-pyridin-3-yl-imidazolidin-2-one]
 | 98% | 5 nM | Cc1ccncc1N1CCN(c2ccc3nc(Cl)cc(C)c3c2)C1=O [Example 21A, 1-(2-Chloro-4-methyl-quinolin-6-yl)-3-(4-methyl-pyridin-3-yl)-imidazolidin-2-one]
 | 83% | 21 nM | CCN1C(=O)CCc2cc(N3CCN(c4cnccc4C)C3=O)ccc21 [Example 17A, 1-Ethyl-6-[3-(4-methyl-pyridin-3-yl)-2-oxo-imidazolidin-1-yl]-3,4-dihydro-1H-quinolin-2-one]
 | 85% | 20 nM | Cc1ccncc1N1CCN(c2ccc3ccccc3n2)C1=O [Example 23A, 1-(4-Methyl-pyridin-3-yl)-3-quinolin-2-yl-imidazolidin-2-one]
 | 17% |  | O=C1N(c2cccnc2)CCN1c1ccc2c(c1)CC/C2=N\O [Example 12A]
 | 69% | 56 nM | CCn1c(=O)cc(C)c2cc(N3CCN(c4cnccc4C)C3=O)ccc21 [Example 20A, 1-Ethyl-4-methyl-6-[3-(4-methyl-pyridin-3-yl)-2-oxo-imidazolidin-1-yl]-1-1H-quinolin-2-one]
 | 51% | 157 nM | Cc1c(N2CCN(c3cccnc3)C2=O)sc2ccc(F)cc12 [Example 6A, 1-(5-Fluoro-3-methyl-benzo[b]thiophen-2-yl)-3-pyridin-3-yl-imidazolidin-2-one]
 | 8% |  | CC(O)c1ccncc1N1CCN(c2ccc3ncsc3c2)C1=O (stereo not drawn) [Example 195A, 1-Benzothiazol-6-yl-3-[4-(1-hydroxyethyl)-pyridin-3-yl]-imidazolidin-2-one]
 | 89% |  | COc1ccc2cc(N3CCN(c4cnccc4C)C3=O)ccc2c1 [Example 25A, 1-(6-Methoxy-naphthalen-2-yl)-3-(4-methyl-pyridin-3-yl)-imidazolidin-2-one]
 | 3.6% |  | O=C1N(c2cncc(C(F)(F)F)c2)CCN1c1ccc2ccccc2c1 [Example 79A, 1-Naphthalen-2-yl-3-(5-trifluoromethyl-pyridin-3-yl)-imidazolidin-2-one]
 | 9% |  | O=C1N(c2cccnc2)CCCN1c1ccc2sccc2c1 [Example 13A, 1-Benzo[b]thiophen-5-yl-3-pyridin-3-yl-tetrahydro-pyrimidin-2-one]
 | 23% |  | CCn1ccc2cc(N3CCN(c4cccnc4)C3=O)ccc21 [Example 2A, 1-(1-Ethyl-1H-indol-5-yl)-3-pyridin-3-yl-imidazolidin-2-one]

From patent USRE45173E1, “Inhibitors of CYP 17” (Novartis AG, priority 2009, dated 2014)
